Experimental data as given in the supplement of paper PMC10290057.
“And” between values parts separate entries of the source, which are not always exact repeats. Equal entries are not always repeated. Structures can show the parent of a compound that is named as a salt.

Tested on: HCT116
Experiment: efficacy (fitted maximal change in viability relative to DMSO control); higher = less cytotoxic (negative = loss of viability)
Conditions: 48 h
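Also: Luminescence-based viability readout, five doses per compound, normalized against on-plate DMSO and empty-well controls, followed by dose-response curve fitting for every drug.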

CN[C@@H](C)C(=O)N[C@@H]1C(=O)N(Cc2c(C)ccc3ccccc23)c2ccc(C#N)cc2N(C(C)=O)[C@H]1C [Compound 36]
efficacy: -26%

CN(C)c1ccc(Nc2nc(N)n(C(=O)c3c(F)cccc3F)n2)cc1
efficacy: -100%

CC(C)[C@](O)(c1ccc2cc(OC(F)F)c(OC(F)F)cc2c1)c1c[nH]nn1 [Seviteronel]
efficacy: -56.2%

CCC[C@@H]1C[C@@H](C(=O)N[C@@H]([C@H]2O[C@H](SC)[C@H](O)[C@@H](O)[C@H]2O)[C@H](C)Cl)N(C)C1 [Clindamycin HCl]
efficacy: -14.1%

FC1=CC=C(SC/2=N/N3\C=N/C(=O)/C(=C3/C=C2)C4=C(Cl)C=CC=C4Cl)C(=C1)F [VX-745]
efficacy: -34.7%

CN(Cc1cc(Br)cc(Br)c1N)C1CCCCC1 [Bromhexine hydrochloride]
efficacy: -27.2%

NC/1=N/C(=O)N(C[C@@H](CO)OC[P](O)(O)=O)/C=C1 [Cidofovir]
efficacy: 7.03%

CC1=C(/C=C/C(C)=C/C=C/C(C)=C\C(=O)O)C(C)(C)CCC1 [Isotretinoin]
efficacy: -13.5%

Cc1coc2c1C(=O)C(=O)c1c-2ccc2c1CCCC2(C)C [Tanshinone IIA]
efficacy: -14.6%

COC1=CC=C(Cl)C=C1\C2=C\C(=O)NC(=S)N2CC(N)=O
efficacy: -13.9%

CCN1\C=C(\C(O)=O)C(=O)C2=C1C=C(N3CCNCC3)C(=C2)F [Norfloxacin]
efficacy: 9.53%

N#Cc1ccc(C(c2ccc(C#N)cc2)n2cncn2)cc1 [Letrozole]
efficacy: -10.3%

O=C1NC(=O)/C(=C/c2ccc3c(c2)OC(F)(F)O3)S1
efficacy: -22.5%

N#CCC1(n2cc(-c3ncnc4[nH]ccc34)cn2)CN(C2CCN(C(=O)c3ccnc(C(F)(F)F)c3F)CC2)C1 [Itacitinib]
efficacy: -26.4%

CCCC(CCC)C(=O)[O-] [Valproic acid sodium salt]
efficacy: 14%

CNC1CCCN(C1)C2=C(F)C=C3C(=O)\C(=C/N(C4CC4)C3=C2OC)C(O)=O (stereo not drawn) [Balofloxacin]
efficacy: -10.2%

COC1=C(F)C(=CC=C1)C/2=C(C)/N(CC3=C(F)C=CC=C3C(F)(F)F)C(=O)N(C[C@H](NCCCC(O)=O)C4=CC=CC=C4)C2=O [Elagolix]
efficacy: -32.8% and -32.2%

C=CC(=O)Nc1ccc(F)c(-c2ncnc3[nH]cc(C(=O)OCC)c23)c1 [JAK3i]
efficacy: -66%

COc1cc2c(cc1OC)CN(CCc1ccc(NC(=O)c3cccc4c(=O)c5cccc(OC)c5[nH]c34)cc1)CC2 [Elacridar]
efficacy: -16.8%

COC1=CC=C(C=C1O)C/2=C/C(=O)C3=C(O2)C=C(O[C@@H]4O[C@H](CO[C@@H]5O[C@@H](C)[C@H](O)[C@@H](O)[C@H]5O)[C@@H](O)[C@H](O)[C@H]4O)C=C3O [Diosmin]
efficacy: -15.2%

COc1cc(OC)c(NC(=O)Nc2cc(C)on2)cc1Cl
efficacy: -7.13%

Clc1cccc(-n2nnnc2NCc2ccccc2Oc2ccccn2)c1Cl
efficacy: -32%

CCC(=O)N[C@H]1CC[C@H](C(=O)N(C)c2ccc(-c3nc4ccccc4o3)cc2)C1 [FASN BI]
efficacy: -31.4%

CC(C)Cn1cnc2c(N)nc3ccccc3c21 [Imiquimod]
efficacy: -14.9%

C=CC(=O)N[C@H]1CCOC[C@H]1Nc1ncc2cc(-c3c(Cl)c(OC)cc(OC)c3Cl)ccc2n1 [BLU-554]
efficacy: -30.8%

CCCCOc1nc(N)c2c(n1)N(Cc1cccc(CN3CCCC3)c1)CC(=O)N2 [Vesatolimod]
efficacy: -47.6%

N[S+](=O)([O-])c1cc2c(cc1Cl)NC(C(Cl)Cl)N[S+]2(=O)[O-] (stereo not drawn) [Trichlormethiazide]
efficacy: 6.79%

CC[C@H](NC1=C2[NH]C=NC2=NC=N1)/C3=C(/C(=O)C4=CC=CC=C4O3)C5=CC=CC(=C5)F [Tenalisib]
efficacy: -39.1%

CC(C)NCC(O)c1ccc(N[S+](C)(=O)[O-])cc1 (stereo not drawn) [Sotalol]
efficacy: -17.6%

CCC[S+](=O)([O-])Nc1ccc(F)c(C(=O)c2c[nH]c3ncc(-c4ccc(Cl)cc4)cc23)c1F [Vemurafenib]
efficacy: 9.66%

OC1=CC=C(C=C1)\C2=C\OC3=C(C(=CC(=C3)O)O)C2=O [Genistein]
efficacy: -33.2%

CC[C@]12CC[C@H]3[C@@H](CCC/4=C/C(=O)CC[C@H]34)[C@@H]1\C=C/[C@@]2(O)C#C [Gestodene]
efficacy: -21.8%

C[C@]\12CCC(=O)\C=C1[C@@H]3C[C@@H]3[C@@H]4[C@@H]2CC[C@@]5(C)[C@H]4[C@@H]6C[C@@H]6[C@@]57CCC(=O)O7 [Drospirenone]
efficacy: -38.8%

O=C(O)CNC(=O)c1ncc(-c2cccc(Cl)c2)cc1O [Vadadustat]
efficacy: -15.6%

CO[C@H]1C[C@@H]2CC[C@@H](C)[C@@](O)(O2)C(=O)C(=O)N2CCCC[C@H]2C(=O)O[C@H]([C@@H](C)C[C@@H]2CC[C@@H](O)[C@H](OC)C2)CC(=O)[C@H](C)/C=C(\C)[C@@H](O)[C@@H](OC)C(=O)[C@H](C)C[C@H](C)/C=C/C=C/C=C/1C [Sirolimus]
efficacy: -50.3%

CCOC(=O)c1c(/C(C#N)=C\N)c2ccc(Cl)c(Cl)c2n1C [KH-CB19]
efficacy: -9.36%

CCOc1cc(CC(=O)N[C@@H](CC(C)C)c2ccccc2N2CCCCC2)ccc1C(=O)O [Repaglinide]
efficacy: -23%

C/C(=C\C(=O)Nc1ccccc1C(=O)O)c1ccc2ccccc2c1 [BIBR-1532]
efficacy: -69.1%

OCCN(CCO)c1nc(N2CCCCC2)c2nc(N(CCO)CCO)nc(N3CCCCC3)c2n1 [Dipyridamole]
efficacy: -30.3%

O=C(Oc1ccc([N+](=O)[O-])cc1)N1CCC(C(O)(c2ccc3c(c2)OCO3)c2ccc3c(c2)OCO3)CC1 [JZL-184]
efficacy: 9.17%

CCC(=O)[N-]S(=O)(=O)c1ccc(-c2c(-c3ccccc3)noc2C)cc1.[Na+] [Parecoxib sodium]
efficacy: -9.88%

ClC1=CC=C2N/C3=N/C(=O)CN3CC2=C1Cl [Anagrelide]
efficacy: -14.6%

O=C(O)c1ccccc1-c1ccc(/C=c2\sc3nc4cc(Br)cnc4n3c2=O)o1 [ML-119]
efficacy: -9.89%

C[C@@H](CN1CC(=O)NC(=O)C1)N1CC(=O)NC(=O)C1 [Dexrazoxane hydrochloride]
efficacy: -22.3%

Cn1cc(-c2ccc3nnc(C(F)(F)c4ccc5ncccc5c4)n3n2)cn1
efficacy: -26.2%

Cn1cc(-c2nc(N[C@@H]3CCCC[C@@H]3N)c(F)c3c2C(=O)NC3)cn1 [TAK-659]
efficacy: -31.1%

C[C@](N)(Cc1ccc(O)c(O)c1)C(=O)O [Methyldopa]
efficacy: -16.9%

NC(=O)c1ncn([C@@H]2O[C@H](CO)[C@@H](O)[C@H]2O)c1O [Mizoribine]
efficacy: 18%

CC[C@H](C)C(=O)O[C@H]1C[C@@H](C)\C=C2\C=C/[C@H](C)[C@H](CC[C@@H]3C[C@@H](O)CC(=O)O3)[C@@H]12 [Lovastatin]
efficacy: -14.4%

CCC(CCCC)COC(=O)C(\C#N)=C(\c1ccccc1)c2ccccc2 (stereo not drawn) [Octocrylene]
efficacy: -31.5%

Cc1c(Cn2c(C)nc3c(C(=O)O)cc(N4CCOCC4)cc32)cccc1C(F)(F)F
efficacy: -10.9%

COC1=C(OC)C(=O)C(C/C=C(\C)CC/C=C(\C)CC/C=C(\C)CC/C=C(/C)CC/C=C(\C)CC/C=C(\C)CC/C=C(\C)CC/C=C(\C)CC/C=C(\C)CCC=C(C)C)=C(C)C1=O [Coenzyme Q10]
efficacy: 7.5%

CCOC(=O)[C@H](CCc1ccccc1)N[C@H]1CS[C@H](c2cccs2)CN(CC(=O)O)C1=O.Cl [Temocapril hydrochloride]
efficacy: 10.5%

CCCCOCCOc1nc(-c2ccc(C(=O)O)c(F)c2)sc1C
efficacy: -10%

CNC(=O)c1c(C)oc2cc(Oc3ncnc4cc(OC)c(OC)cc34)ccc12 [Fruquintinib]
efficacy: -11.4%

COc1ccc(C(=O)CC(=O)c2ccc(C(C)(C)C)cc2)cc1 [Avobenzone]
efficacy: -43.1%

C[C@@H](c1ncncc1F)[C@](O)(Cn1cncn1)c1ccc(F)cc1F [Voriconazole]
efficacy: -12.1%

O=C(O)Cn1nnc(-c2cc(N3CCC(Oc4cc(F)ccc4Br)CC3)no2)n1 [MK-8245]
efficacy: -19.9%

CC(=O)NCCC(=O)N[C@@H](CCC(N)=O)C(=O)N[C@@H](CO)C(=O)N[C@@H](CCC(N)=O)C(=O)N[C@@H](CCC(N)=O)C(=O)N[C@H](C(=O)N[C@@H](Cc1ccccc1)C(=O)N[C@]1(C)CCCCCC/C=C\CCC[C@@](C)(C(=O)N[C@@H](CCC(N)=O)C(=O)N[C@@H](CC(N)=O)C(N)=O)NC(=O)[C@H](CC(C)C)NC(=O)[C@H](CC(C)C)NC(=O)[C@@H](CCCNC(=N)N)NC(=O)[C@H](Cc2c[nH]c3ccccc23)NC(=O)[C@H](CC(C)C)NC(=O)[C@H](CC(N)=O)NC1=O)[C@H](C)O [Ac-SAH-p53-8]
efficacy: -6.69%

CC1(N)CCN(c2cnc(-c3cccc(Cl)c3Cl)c(N)n2)CC1 [SHP-099]
efficacy: -5.94%

CCc1ccc(CCOc2ccc(CC3SC(=O)NC3=O)cc2)nc1 (stereo not drawn) [Pioglitazone hydrochloride]
efficacy: 16.5%

C[C@]12Cc3cn[nH]c3C[C@@H]1CC[C@@H]1[C@@H]2CC[C@@]2(C)[C@H]1CC[C@]2(C)O [Stanozolol]
efficacy: -19.3%

CCC(c1ccc(O)cc1)C(CC)c1ccc(O)cc1 (stereo not drawn) [Hexestrol]
efficacy: -61.8%

NNc1nncc2ccccc12 [Apresoline]
efficacy: 28.9%

Clc1ccc(C(c2ccccc2Cl)C(Cl)Cl)cc1 (stereo not drawn) [Mitotane]
efficacy: -92.3%

N#C[C@@H]1C[C@@H]2C[C@@H]2N1C(=O)[C@@H](N)C12CC3CC(CC(O)(C3)C1)C2 [Saxagliptin]
efficacy: -9.01%

CCCCOc1ccc(CC(=O)NO)cc1 [Bufexamac]
efficacy: -14.9%

Cc1nc(-c2ccc(OCC(C)C)c(C#N)c2)sc1C(=O)O [Febuxostat]
efficacy: 3.94%

NC12CC3CC(CC(C3)C1)C2 [Amantadine hydrochloride]
efficacy: -15.1%

O=C(c1ccc(N[S+](=O)([O-])c2cccc3cccnc23)cc1)N1CCN(CC2CC2)CC1 [Mitapivat]
efficacy: -18.2%

Cn1c(CNc2ccc(C(=N)N)cc2)nc2cc(C(=O)N(CCC(=O)O)c3ccccn3)ccc21 [Dabigatran]
efficacy: -8.84%

CC(C)=CC[C@@H](O)C/1=C/C(=O)C2=C(O)C=CC(=C2C1=O)O [Shikonin]
efficacy: -13.1%

COc1cc(OC)c(C(=O)CCCN2CCCC2)c(OC)c1 [Buflomedil hydrochloride]
efficacy: -7.04%
